One series has as its system P. falciparum K1 strain. The series is described as follows: In vitro antiplasmodium activity, 3H-hypoxanthine incorporation assay. The class given is cell-based, Plasmodium falciparum. To be noted: for IC50: read-out: P. falciparum K1 IC50; for Selectivity Indices (SI) [(IC50 L6 Cell Line)/(IC50 K1 strain)]: L6 vs K1. The protocol: (§1) Antiplasmodial activity on the K1 strain, antitrypanosomal activity on T. b. brucei rhodesiense STIB900 and cytotoxicity on the L6 mammalian cell-line were all carried out at the Swiss Tropical and Public Health Institute (STPH), Switzerland as follows:
In vitro activity against erythrocytic stages of P. falciparum was determined using a ^3H-hypoxanthine incorporation assay, using the chloroquine and pyrimethamine-resistant K1 strain that originates from Thailand and the standard drug chloroquine (Sigma C6628). Compounds were dissolved in DMSO at 10 mg/mL and added to parasite cultures incubated in RPMI 1640 medium without hypoxanthine, supplemented with HEPES (5.94 g/L), NaHCO3 (2.1 g/L), neomycin (100 U/mL), Albumax^R (5 g/L) and washed human red cells A^+ at 2.5% hematocrit (0.3% parasitemia). Serial drug dilutions of eleven three-fold dilution steps covering a range from 100 to 0.002 μg/mL were prepared. The 96-well plates were incubated in a humidified atmosphere at 37 °C; 4% CO2, 3% O2, 93% N2. After 48 h, 50 μL of ^3H-hypoxanthine (= 0.5 μCi) was added to each well of the plate. The test compounds were tested in triplicate ad parasite growth compared to control or blank well. The plates were incubated for a further 24 h under the same conditions. The plates were then harvested with a Betaplate™ cell harvester (Wallac, Zurich, Switzerland), and the red blood cells transferred onto a glass fiber filter then washed with distilled water. The dried filters were inserted into a plastic foil with 10 mL of scintillation fluid and counted in a Betaplate™ liquid scintillation counter (Wallac, Zurich, Switzerland). IC50 values were calculated from sigmoidal inhibition curves by linear regression using Microsoft Excel.

The nature of series [1]: Aqueous kinetic solubility. The class given is physicochemical. The protocol: A 10 mM stock of the compound was diluted in DMSO to give standard solutions at 220 µM, 100 µM and 10 µM in a 96 well plate as described previously. The 10 mM stock was then spiked 1:50 in phosphate-buffered saline pH 7.0 to give a final DMSO concentration of 2%. Both the standard and sample solutions were plated in triplicate. After shaking for 2 h at 25 °C, the solutions were filtered and analyzed on an Agilent 1200 series HPLC with DAD detection. The solubility of the test compounds was determined by comparing the peak area of the sample solutions to that of the standard solutions.

For series [2], the system named is Trypanosoma brucei rhodesiense STIB900. The series is described as follows: In vitro antitrypanosomal activity, alamarBlue assay. To be noted: STIB900 bloodstream forms, 70 h + 2-4 h alamarBlue, read-out: T. b. brucie T. b. rhod IC50. The format is cell-based. The protocol:
as §1
This stock was isolated in 1982 from a human patient in Tanzania and, after several mouse passages, was cloned and adapted to axenic culture conditions. Minimum essential medium (50 µL) supplemented with 25 mM HEPES, 1 g/L additional glucose, 1% MEM non-essential amino acids (100×), 0.2 mM 2-mercaptoethanol, 1 mM Na-pyruvate and 15% heat-inactivated horse serum was added to each well of a 96-well microtiter plate. Serial drug dilutions of eleven three-fold dilution steps covering a range from 100 to 0.002 μg/mL were prepared. Then, 4 × 10^3 bloodstream forms of T. b. rhodesiense STIB 900 in 50 µL was added to each well and the plate incubated at 37 °C under a 5% CO2 atmosphere for 70 h. 10 µL alamarBlue (resazurin, 12.5 mg in 100 mL double-distilled water) was then added to each well and incubation continued for a further 2–4 h. Then the plates were read with a Spectramax Gemini XS microplate fluorometer (Molecular Devices Cooperation, Sunnyvale, CA, USA) using an excitation wavelength of 536 nm and an emission wavelength of 588 nm. The test compounds were tested in triplicate, and their IC50 values were calculated by linear regression from the sigmoidal dose inhibition curves using Softmax Pro software (Molecular Devices Cooperation, Sunnyvale, CA, USA).
Background: Resazurin is reduced to fluorescent resorufin, in cell work by metabolically active cells.

Series [3] can be described thus: In vitro cytotoxicity with L-6 cells, alamarBlue assay. The class given is cell-based. To be noted: rat, L6 cells, 70 h + 2 h alamarBlue, read-out: Cytotoxicity L6 Cell Lines IC50. The procedure:
as §1
Assays were performed in triplicate in 96-well microtiter plates, each well containing 100 μL of RPMI 1640 medium supplemented with 1% L-glutamine (200 mM) and 10% fetal bovine serum, and 4000 L-6 cells (a primary cell line derived from rat skeletal myoblasts). Serial drug dilutions of eleven three-fold dilution steps covering a range from 100 to 0.002 μg/mL were prepared. After 70 h of incubation, the plates were inspected under an inverted microscope to assure the growth of the controls and sterile conditions. 10 μL of alamarBlue was then added to each well, and the plates incubated for another 2 h. Then the plates were read with a Spectramax Gemini XS microplate fluorometer (Molecular Devices Cooperation, Sunnyvale, CA, USA) using an excitation wavelength of 536 nm and an emission wavelength of 588 nm. The IC50 values were calculated by linear regression from the sigmoidal dose inhibition curves using Softmax Pro software (Molecular Devices Cooperation, Sunnyvale, CA, USA).

The mark [4] stands for this setting: Plasmodium falciparum, K1, 72 h.
The mark [5] stands for this setting: multidrug-resistant (chloroquine and pyrimethamine-resistant) K1 strain, erythrocytic stages, 72 h.
The mark [6] stands for this setting: Plasmodium falciparum, multidrug-resistant (chloroquine and pyrimethamine-resistant) K1 strain, erythrocytic stages, 72 h.
Setting [7] is: L-6 cells (rat skeletal myoblasts).
Where [8] appears, read: aqueous buffer, kinetic from dmso stock, phosphate-buffered saline pH 7.0, 2% DMSO, 2 h at 25 °C.

The IC50 is the concentration at which inhibition is half-maximal. A word on the kinetic solubility: it is solubility judged after dilution from a stock solution rather than from solid.

Where two headings read alike, the source gives them in different places.

Turning to `COc1cc(NC(C)CCCN)c2ncccc2c1` (stereo not shown) [Primaquine, reference compound], in the series with P. falciparum K1 strain (setting [4]), the IC50 was 0.64 µM.

Regarding “N-{5-[(1-tert-butyl-1H-tetrazol-5-yl)(p-tolyl)methylamino]pentan-2-yl}-6-methoxyquinolin-8-amine [Compound 6c]”, the 50% inhibitory concentration (IC50) worked out at 1.57 µM with P. falciparum K1 strain (setting [5]) and 18.5 µM in series [2]. This compound also showed a kinetic solubility at 2 h in series [1] (pH 7) of less than 5 µM.

For the compound `COC1C(=O)N(CCCCNc2ccnc3cc(Cl)ccc23)C1c1ccccc1` (stereo not shown) [Compound 4g, 1-[4-(7-Chloroquinolin-4-ylamino)butyl]-3-methoxy-4-phenylazetidin-2-one], the “Selectivity Indices (SI) [(IC50 L6 Cell Line)/(IC50 K1 strain)]” value (from here on “Selectivity Indices (SI)”) with P. falciparum K1 strain came out at 9. Besides, the IC50 in the series on P. falciparum K1 strain (setting [6]) came to 0.31 µM; in series [2] (Trypanosoma brucei), 20 µM. In addition, in series [3] (setting [7]), the IC50 at 72 h came out at 2.87 µM. Also, the kinetic solubility at 2 h in series [1] (setting [8]) is more than 200 µM.

In the case of `COc1cc([C@@H]2c3cc4c(cc3[C@H](O)[C@H]3COC(=O)[C@H]23)OCO4)cc(OC)c1OC` [Podophyllotoxin, reference compound], in series [3], the IC50 at 72 h is 0.0193 µM.

For “1-[2-(7-Chloroquinolin-4-ylamino)ethyl]-3-methoxy-4-(4-methoxyphenyl)azetidin-2-one [Compound 4b]”, the IC50 in the series with P. falciparum K1 strain (setting [5]) came to 0.62 µM; in series [2] it was 52.9 µM.

Turning to `COC1C(=O)N(CCCNc2ccnc3cc(Cl)ccc23)C1c1ccccc1` (stereo not shown) [Compound 4f, 1-[3-(7-Chloroquinolin-4-ylamino)propyl]-3-methoxy-4-phenylazetidin-2-one], in the series with P. falciparum K1 strain, the “Selectivity Indices (SI)” value amounted to 25. The IC50 in the series on P. falciparum K1 strain (setting [6]) was found to be 0.57 µM; in series [2] (Trypanosoma brucei) it was 16.1 µM. Moreover, the IC50 at 72 h in series [3] (setting [7]) came to 14.4 µM.

Take “1-[2-(7-Chloroquinolin-4-ylamino)ethyl]-3-methoxy-4-p-tolylazetidin-2-one [Compound 4c]”: the values for the IC50 (in the series with P. falciparum K1 strain (setting [5]); in series [2]) were 0.58 µM and 52.5 µM, respectively.

Take “N-{5-[(1-tert-butyl-1H-tetrazol-5-yl)(phenyl)methylamino]pentan-2-yl}-6-methoxyquinolin-8-amine [Compound 6a]”: the results for the IC50 (in the series on P. falciparum K1 strain (setting [5]); in series [2]) were 2.47 µM and 18.1 µM, respectively.

For `COc1cccc(C(NCCCC(C)Nc2cc(OC)cc3cccnc23)c2nnnn2C(C)(C)C)c1` (stereo not shown) [Compound 6b], in the series on P. falciparum K1 strain, the “Selectivity Indices (SI)” value is on record as 38. For the same compound, the half-inhibitory concentration (IC50) in the series with P. falciparum K1 strain (setting [6]) was 1.98 µM; in series [2] (Trypanosoma brucei) it was 14.2 µM. Also, the IC50 at 72 h in series [3] (setting [7]) amounted to 75.5 µM.

`COC1C(=O)N(CCNc2ccnc3cc(Cl)ccc23)C1c1ccc(Cl)c(Cl)c1` (stereo not shown) [Compound 4d, 1-[2-(7-Chloroquinolin-4-ylamino)ethyl]-4-(3,4-dichlorophenyl)-3-methoxyazetidin-2-one]: in the series with P. falciparum K1 strain, the “Selectivity Indices (SI)” value was found to be 43. The IC50 with P. falciparum K1 strain (setting [6]) is 0.2 µM; in series [2] (Trypanosoma brucei), 19 µM. The IC50 at 72 h in series [3] (setting [7]) came out at 8.54 µM.

On to “N-{5-[(1-tert-butyl-1H-tetrazol-5-yl)(3,4-dichlorophenyl)methylamino]pentan-2-yl}-6-methoxyquinolin-8-amine [Compound 6d]”, for which the figures for the IC50 (in the series with P. falciparum K1 strain (setting [5]); in series [2]) were 1.31 µM and 18.3 µM, respectively. Besides, the kinetic solubility at 2 h in series [1] (pH 7) is less than 5 µM.

On to `CCN(CC)CCCC(C)Nc1ccnc2cc(Cl)ccc12` (stereo not shown) [Chloroquine, reference compound], for which the IC50 with P. falciparum K1 strain (setting [4]) is 0.22 µM.

As to “N-{5-[(1-tert-butyl-1H-tetrazol-5-yl)(4-chlorophenyl)methylamino]pentan-2-yl}-6-methoxyquinolin-8-amine [Compound 6e]”, the 50% inhibitory concentration (IC50) in the series on P. falciparum K1 strain (setting [5]) stood at 1.8 µM; in series [2], 21.4 µM. In series [1] (pH 7), this compound came in with a solubility (kinetic) at 2 h of less than 15 µM.

Turning to `COC1C(=O)N(CCNc2ccnc3cc(Cl)ccc23)C1c1ccccc1` (stereo not shown) [Compound 4a, 1-[2-(7-Chloroquinolin-4-ylamino)ethyl]-3-methoxy-4-phenylazetidin-2-one], in the series on P. falciparum K1 strain, the “Selectivity Indices (SI)” value was 211. The IC50 with P. falciparum K1 strain (setting [6]) is 0.47 µM; in series [2] (Trypanosoma brucei) it was 53.2 µM. In addition, in series [3] (setting [7]), the 50% inhibitory concentration (IC50) at 72 h stood at 98.5 µM. For the same compound, the solubility (kinetic) at 2 h in series [1] (setting [8]) was more than 200 µM.

As for “1-[2-(7-Chloroquinolin-4-ylamino)ethyl]-4-(4-chlorophenyl)-3-methoxyazetidin-2-one [Compound 4e]”, the values for the concentration for half-maximal inhibition (IC50) (in the series on P. falciparum K1 strain (setting [5]); in series [2]) were 0.3 µM and 7.01 µM, respectively. In series [1] (pH 7), this compound returned a kinetic solubility at 2 h of more than 200 µM.

The values above are taken from publication PMC7765388, “Synthesis and In Vitro Antiprotozoan Evaluation of 4-/8-Aminoquinoline-based Lactams and Tetrazoles” (Molecules, 2020).
